Source: patent US9540391B2, “Isomannide derivatives as inhibitors of soluble epoxide hydrolase” (SANOFI, priority 2013, dated 2017)

molecular target: T1, recombinant sEH (Homo sapiens, UniProt P34913); assay: biochemical screening assay for inhibition of soluble epoxide hydrolase (fluorometric, Phome substrate)
T1 construct: made in house; host or cells: Sf9 insect cells
T1 sequence (P34913 1-555): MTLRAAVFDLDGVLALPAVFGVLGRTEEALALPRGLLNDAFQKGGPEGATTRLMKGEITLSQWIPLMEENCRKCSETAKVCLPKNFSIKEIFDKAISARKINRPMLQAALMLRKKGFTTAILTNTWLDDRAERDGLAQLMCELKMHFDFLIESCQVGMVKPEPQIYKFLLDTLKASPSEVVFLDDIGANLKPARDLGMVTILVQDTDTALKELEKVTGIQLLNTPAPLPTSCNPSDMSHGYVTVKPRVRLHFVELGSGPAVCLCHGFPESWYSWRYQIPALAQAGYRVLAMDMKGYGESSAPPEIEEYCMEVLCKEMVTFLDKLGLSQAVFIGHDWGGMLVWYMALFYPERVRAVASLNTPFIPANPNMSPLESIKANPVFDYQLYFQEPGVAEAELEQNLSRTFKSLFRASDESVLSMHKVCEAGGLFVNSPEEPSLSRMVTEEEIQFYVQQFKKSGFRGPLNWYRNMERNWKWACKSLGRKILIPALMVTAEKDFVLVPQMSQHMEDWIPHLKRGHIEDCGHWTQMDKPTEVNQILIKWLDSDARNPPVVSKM
Method in brief: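 Reading fluorescence before substrate addition and after completion corrected for autofluorescence. Reaction: 5 μM Phome, 2 nM recombinant human sEH (Sf9-expressed), compound 0.0001–10 μM, 25 mM Hepes with 0.01% albumin, 15 min pre-incubation then 60 min at 30 °C; IC50 derived from % inhibition.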

Question: For `O=C(N[C@H]1CO[C@H]2[C@@H]1OC[C@@H]2Oc1ccc(F)cc1)N[C@H]1CCCC[C@@H]1OCc1ccccc1` [Example 163, 1-((1S,2S)-2-Benzyloxy-cyclohexyl)-3-[(3S,3aR,6S,6aS)-6-(4-fluoro-phenoxy)-hexahydro-furo[3,2-b]furan-3-yl]-urea], which IC50 is on record?
Answer: 192 nM

Question: How did the IC50 turn out when `O=C(NC1CCCCC1)N[C@H]1CO[C@H]2[C@@H]1OC[C@@H]2Oc1cnc(Cl)c(F)c1` [Example 64, 1-[(3S,3aR,6S,6aS)-6-(6-Chloro-5-fluoro-pyridin-3-yloxy)-hexahydro-furo[3,2-b]furan-3-yl]-3-cyclohexyl-urea] was run?
Answer: 2 nM

Question: `Cc1ncccc1O[C@H]1CO[C@H]2[C@@H]1OC[C@@H]2NC(=O)NCC1COCCO1` (stereo partly drawn) [Example 194, 1-[1,4]Dioxan-2-ylmethyl-3-[(3S,3aR,6S,6aS)-6-(2-methyl-pyridin-3-yloxy)-hexahydro-furo[3,2-b]furan-3-yl]-urea] was tested. Which IC50 did it give?
Answer: 1470 nM

Question: How did the IC50 turn out when `O=C(NCCc1cccs1)N[C@H]1CO[C@H]2[C@@H]1OC[C@@H]2C#Cc1ccccc1` [Example 296, 1-((3S,3aR,6S,6aR)-6-Phenylethynyl-hexahydro-furo[3,2-b]furan-3-yl)-3-(2-thiophen-2-yl-ethyl)-urea] was run?
Answer: 100 nM

Question: How did the IC50 turn out when `O=C(NC1CCCCC1)N[C@H]1CO[C@H]2[C@@H]1OC[C@@H]2Oc1ccc(Oc2ccccn2)cc1` [Example 109, 1-Cyclohexyl-3-{(3S,3aR,6S,6aS)-6-[4-(pyridin-2-yloxy)-phenoxy]-hexa-hydro-furo[3,2-b]furan-3-yl}-urea] was run?
Answer: 1 nM

Question: `CCOC(=O)c1cccc(O[C@H]2CO[C@H]3[C@@H]2OC[C@@H]3NC(=O)NC2CCCCC2)c1` [Example 141, 3-[(3S,3aS,6S,6aR)-6-(3-Cyclohexyl-ureido)-hexahydro-furo[3,2-b]furan-3-yloxy]-benzoic acid ethyl ester] was tested. Which IC50 did it give?
Answer: 2 nM

Question: How did the IC50 turn out when `Cc1ncccc1O[C@H]1CO[C@H]2[C@@H]1OC[C@@H]2NC(=O)NCC1CCCO1` (stereo partly drawn) [Example 176, 1-[(3S,3aR,6S,6aS)-6-(2-Methyl-pyridin-3-yloxy)-hexahydro-furo[3,2-b]furan-3-yl]-3-(tetrahydro-furan-2-ylmethyl)-urea] was run?
Answer: 1450 nM

Question: Which IC50 does the source give for `CC(C)(C)S[C@H]1CO[C@H]2[C@@H]1OC[C@@H]2NC(=O)NC1CCCCC1` [Example 21, 1-((3S,3aR,6S,6aS)-6-tert-Butylsulfanyl-hexahydro-furo[3,2-b]furan-3-yl)-3-cyclohexyl-urea] here?
Answer: 1 nM
